Source: patent US4605744A, “Imidazole derivatives” (Hoffmann-La Roche Inc., priority 1985, dated 1986)
Structures can show the parent of a compound that is named as a salt. Where two headings read alike, the source gives them in different places.

Legend:
[1] = system: E. coli 257; assay: In vitro antibacterial activity (MIC, Mueller-Hinton broth); format: cell-based; conditions: Escherichia coli, 257, E. coli 257; read-out: MIC
Protocol: Drug dilutions are prepared in Mueller-Hinton broth ranging from 128 to 0.008 μg/ml. The diluted agents are dispensed in 100 μl amounts into the wells of a 96-well tray and used immediately or frozen at -10° to -70° C. until needed. Using an automated inoculator, 1.5 μl of a 10^-2 dilution of an overnight culture is added to each well of the tray. The tops of the trays are then sealed using transparent tape and incubated overnight at 37° C. The trays are examined with the aid of a viewer. The lowest concentration at which no growth is observed is considered to be the minimum inhibitory concentration (MIC).

[2] = system: S. aureus Smith; assay: In vivo antibacterial activity (PD50); conditions: Staphylococcus aureus, sc
[3] = system: E. coli 257; assay: In vivo antibacterial activity (PD50); conditions: Escherichia coli, 257, sc
[4] = system: S. pyogenes 4; assay: In vivo antibacterial activity (PD50); conditions: Streptococcus pyogenes, 4, sc, sc, read-out: PD50
[5] = system: S. marcescens SM; assay: In vivo antibacterial activity (PD50); conditions: Serratia marcescens; sc; Table 9
Protocol: (§2) The results in these Tables and the PD50 's were determined by the procedure set forth on page 160 in Beskid et al., Antimicrobial Agents and Chemotherapy, Vol. 20, No. 2 pp. 159-167 (Aug. 1981) for "in vivo studies".

[6] = system: P. mirabilis 2; assay: In vitro antibacterial activity (MIC); format: cell-based; conditions: Proteus mirabilis, 2, P. mirabilis 2; read-out: MIC
Procedure, shortened: (§1)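 Overnight cultures, diluted 10^-2, were added at 1.5 μl per well to twofold drug series (128–0.008 μg/ml) in Mueller-Hinton broth.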

[7] = system: E. coli 48; assay: In vitro antibacterial activity (MIC); format: cell-based; conditions: Escherichia coli, 48, E. coli 48; read-out: MIC
Procedure, shortened: as §1

[8] = system: E. cloacae 9295; assay: In vitro antibacterial activity (MIC); format: cell-based; conditions: Enterobacter cloacae, 9295, E. cloacae 9295; read-out: MIC
Procedure, shortened: as §1

[9] = system: P. aeruginosa B; assay: In vitro antibacterial activity (MIC); format: cell-based; conditions: Pseudomonas aeruginosa, read-out: MIC
Procedure, shortened: as §1

[10] = system: S. marcescens S714; assay: In vitro antibacterial activity (MIC); format: cell-based; conditions: Serratia marcescens, S714, S. marcescens S714; read-out: MIC
Procedure, shortened: as §1

[11] = system: S. schottmuelleri; assay: In vitro antibacterial activity (MIC); format: cell-based; conditions: read-out: MIC
Procedure, shortened: as §1

[12] = system: P. aeruginosa 6148B; assay: In vitro antibacterial activity (MIC); format: cell-based; conditions: Pseudomonas aeruginosa, read-out: MIC
Procedure, shortened: as §1

[13] = system: P. aeruginosa 503-820; assay: In vitro antibacterial activity (MIC); format: cell-based; conditions: Pseudomonas aeruginosa, 503820; P. aeruginosa 503-820; read-out: MIC
Procedure, shortened: as §1

[14] = system: P. aeruginosa 5700; assay: In vitro antibacterial activity (MIC); format: cell-based; conditions: Pseudomonas aeruginosa, 5700, P. aeruginosa 5700; read-out: MIC
Procedure, shortened: as §1

[15] = system: E. cloacae 5699; assay: In vitro antibacterial activity (MIC); format: cell-based; conditions: Enterobacter cloacae, 5699, E. cloacae 5699; read-out: MIC
Procedure, shortened: as §1

[16] = system: S. pneumoniae 6302; assay: In vitro antibacterial activity (MIC); format: cell-based; conditions: Streptococcus pneumoniae, 6302, S. pneumoniae 6302; read-out: MIC
Procedure, shortened: as §1

[17] = system: C. diversus CDC 1663-72; assay: In vitro antibacterial activity (MIC); format: cell-based; conditions: Citrobacter koseri, CDC166372; C. diversus CDC 1663-72; read-out: MIC
Procedure, shortened: as §1

[18] = system: P. mirabilis 90; assay: In vitro antibacterial activity (MIC); format: cell-based; conditions: Proteus mirabilis, 90, P. mirabilis 90; read-out: MIC
Procedure, shortened: as §1

[19] = system: E. cloacae P99; assay: In vitro antibacterial activity (MIC); format: cell-based; conditions: Enterobacter cloacae, P99, E. cloacae P99
Procedure, shortened: as §1

[20] = system: E. coli 5152; assay: In vitro antibacterial activity (MIC); format: cell-based
Procedure, shortened: as §1

[21] = system: E. cloacae 214; assay: In vitro antibacterial activity (MIC); format: cell-based; conditions: Enterobacter cloacae, 214, E. cloacae 214; read-out: MIC
Procedure, shortened: as §1

[22] = system: P. aeruginosa 5712; assay: In vitro antibacterial activity (MIC); format: cell-based; conditions: Pseudomonas aeruginosa; P. aeruginosa 5712; read-out: MIC
Procedure, shortened: as §1

[23] = system: P. aeruginosa 8780; assay: In vitro antibacterial activity (MIC); format: cell-based; conditions: Pseudomonas aeruginosa; P. aeruginosa 8780; read-out: MIC
Procedure, shortened: as §1

[24] = system: S. marcescens S5; assay: In vitro antibacterial activity (MIC); format: cell-based; conditions: Serratia marcescens, S5, S. marcescens S5; read-out: MIC
Procedure, shortened: as §1

[25] = system: K. pneumoniae 503-994; assay: In vitro antibacterial activity (MIC); format: cell-based; conditions: Klebsiella pneumoniae, 503994, K. pneumoniae 503-994; read-out: MIC
Procedure, shortened: as §1

[26] = system: P. vulgaris 100; assay: In vitro antibacterial activity (MIC); format: cell-based; conditions: Proteus vulgaris; P. vulgaris 100; read-out: MIC
Procedure, shortened: as §1

[27] = system: E. coli 5152; assay: In vivo antibacterial activity (PD50); conditions: Escherichia coli, 5152, sc
[28] = system: S. faecalis C1; assay: In vivo antibacterial activity (PD50); conditions: Enterococcus faecalis, C1; sc; Table 9
Protocol: as §2

[29] = system: S. pneumoniae 6302; assay: In vivo antibacterial activity (PD50); conditions: Streptococcus pneumoniae, 6302, sc, Table 9
Protocol: as §2

[30] = system: P. aeruginosa 503-56; assay: In vivo antibacterial activity (PD50); conditions: Pseudomonas aeruginosa, 50356, sc
[31] = system: K. pneumoniae HE7; assay: In vivo antibacterial activity (PD50); conditions: Klebsiella pneumoniae, HE7, sc, challenge 750 LD50s, 2 treatments, Table 10
Protocol: as §2

[32] = system: P. aeruginosa 6799; assay: In vivo antibacterial activity (PD50); conditions: Pseudomonas aeruginosa, 6799, sc, sc; challenge 48 LD50s; 2 treatments; Table 10; read-out: PD50
Protocol: as §2

[33] = system: E. cloacae 6951; assay: In vivo antibacterial activity (PD50); conditions: Enterobacter cloacae, 6951, sc, challenge 562 LD50s, 2 treatments, Table 10
Protocol: as §2

[34] = system: P. aeruginosa 6719; assay: In vivo antibacterial activity (PD50); conditions: Pseudomonas aeruginosa, 6719, sc, challenge 2249 LD50s, 3 treatments, Table 10
Protocol: as §2

[35] = challenge 100 LD50s, 2 treatments, Table 10

SMILES | MIC [1] | MIC [6] | MIC [7] | MIC [8] | MIC [9] | MIC [10] | MIC [11] | MIC [12] | MIC [13] | MIC [14] | MIC [15] | MIC [16] | MIC [17] | MIC [18] | MIC [19] | MIC [21] | MIC [22] | MIC [23] | MIC [24] | MIC [25] | also measured
CC1(C)S[C@@H]2[C@H](N=CN3CCC(CCCn4ccnc4N)CC3)C(=O)N2[C@H]1C(=O)O [I, [2S-(2alpha,5alpha,6beta)]-6-[[[4-[3-(2-amino-1H-imidazol-1-yl)propyl]piperidinyl]methylene]amino]-3,3-dimethyl-7-oxo-4-thia-1-azabicyclo[3.2.0]hpetane-2-carboxylic acid hydrochloride] | 0.031 µg/mL | 0.25 µg/mL | 0.031 µg/mL | 0.125 µg/mL | 0.062 µg/mL | 0.125 µg/mL | 0.031 µg/mL | 128 µg/mL | 128 µg/mL | 0.062 µg/mL | 0.062 µg/mL | 4 µg/mL | 0.031 µg/mL | 4 µg/mL | 0.031 µg/mL | 0.062 µg/mL | > 128 µg/mL | > 128 µg/mL | 0.25 µg/mL | 0.062 µg/mL | ED50 ([2]; Table 9): 61 mg/kg; ED50 ([3]; Table 9): < 0.2 mg/kg; ED50 ([4]; Table 9): 11 mg/kg; ED50 [5]: > 250 mg/kg; MIC ([20]; Escherichia coli, 5152): 4 µg/mL; MIC [26]: 4 µg/mL; ED50 ([27]; Table 9): > 250 mg/kg; ED50 [28]: > 250 mg/kg; ED50 [29]: 202 mg/kg; ED50 ([30]; Table 9): > 250 mg/kg
CC1(C)S[C@@H]2[C@H](N=CN3CCC(CC4=NCCN4)CC3)C(=O)N2[C@H]1C(=O)O [M, [2S-(2alpha,5alpha,6beta)]-6-[[[4-[(4,5-dihydro-1H-imidazol-2-yl)methyl]-1-piperidinyl]methylene]amino]-3,3-dimethyl-7-oxo-4-thia-1-azabicyclo[3.2.0]heptane-2-carboxylic acid hydrochloride] | 0.125 µg/mL | 0.5 µg/mL | 0.125 µg/mL | 0.5 µg/mL | 0.25 µg/mL | 0.5 µg/mL | 0.062 µg/mL | 32 µg/mL | 64 µg/mL | 0.125 µg/mL | 0.25 µg/mL | 1 µg/mL | 0.062 µg/mL | 0.5 µg/mL | 0.062 µg/mL | 0.25 µg/mL | 128 µg/mL | 128 µg/mL | 1 µg/mL | 0.25 µg/mL | ED50 ([2]; challenge 48 LD50s, 2 treatments, Table 10): < 5 mg/kg; ED50 [2, 35]: 6.7 mg/kg; ED50 [31]: 71 mg/kg; ED50 ([3]; challenge >10^4 LD50s, 1 treatment, Table 10): 1.5 mg/kg; ED50 [4, 35]: < 2 mg/kg; MIC ([20]; Escherichia coli, 5152, E. coli 5152, read-out: MIC): 16 µg/mL; MIC [26]: 8 µg/mL; ED50 [32]: > 250 mg/kg; ED50 ([27]; challenge 2717 LD50s, 2 treatments, Table 10): 134 mg/kg; ED50 [33]: 15 mg/kg; ED50 ([30]; challenge 4.7 LD50s, 2 treatments, Table 10): 67 mg/kg; ED50 [30, 35]: 100 mg/kg; ED50 [34]: 34 mg/kg
